The test system of one test is cisplatin-mediated AKI. The experiment in a line: Murine model of cisplatin AKI. To be noted: cisplatin + peptide; Sham 0.05±0.002, cisplatin 0.177±0.02; n=3. In kind it is in vivo, mice. On the procedure:
The efficacy of recombinant renalase in treating cisplatin-induced AKI was investigated, and the mechanisms that mediate its protective action were assessed. Cisplatin (20 mg/kg) was administered by intra-peritoneal injection to either WT or renalase KO mice. The mice were sacrificed 3 days later. Blood was collected for BUN and creatinine measurements, and kidneys harvested for histologic examination, immunofluorescence (IF), and western blotting (WB). One renal pathologist, masked to the identity of the study animal, reviewed each kidney specimen. Pathologic features were scored using an ordinal rating scale (0-4; 0=none; 1=<25%, 2=26-50%; 3=51-75%; 4=76-100%) for the presence of tubular necrosis. Morphometry of renal cortex and medulla was performed using point counting technique. Points falling on injured tubules, were counted and the percentage of lesion area was calculated as percentage of total points counted
Cisplatin (15-20 mg/kg) was administered by intraperitoneal injection (IP) to either WT or renalase KO mice under brief isoflurane anesthesia. The animals were sacrificed 3 days later. […] Pathologic features were scored using an ordinal rating scale (0-4; 0=none; 1=<25%, 2=26-50%; 3=51-75%; 4=76-100%) for the presence of tubular necrosis. […] Points falling on injured tubules were counted, and the percentage of lesion area was calculated as percentage of total points counted. […]

A short description of test [1]: NADH / amine oxidase activity of renalase peptides. Type of test: biochemical. Particulars: 25 mM Tris, pH 7.5, 5 mM NaCl, 150 μM NADH, 37° C. The method, then:
Renalase isoforms Ren1-7; exons numbered from 1 to 10; RP-224: renalase peptide amino acid 224-233 of Ren1 or Ren2; RP-220; amino acids 220-239; RP-H220: histidine tagged RP-220; RP-Scr220: scrambled RP-220 (FIG. 19A). CCL-119 cells in culture treated with anti-renalase monoclonal antibody for 24 hrs; cell survival measured by the WST-1 method; n=3, *: P<0.05 (FIG. 19B). HK-2 cell treated with 2 mM H2O2 with and without renalase peptides for indicated time; LDH: lactate dehydrogenase; n=6, *: P<0.05 for Control vs. renalase peptide (FIG. 19C). HK-2 cells treated with 20 μM cisplatin with and without recombinant renalase and renalase peptides for 24 hrs, *: P<0.05, control vs. renalase peptide (FIG. 19D). Plasma creatinine levels from mice subjected to sham-surgery or to renal ischemia and reperfusion (IR); Renalase WT mice were subjected to sham-surgery or to 30 min renal IR. For mice subjected to renal IR, RP-H220 or vehicle (saline) was injected 10 min prior to renal ischemia.
Human recombinant renalase was synthesized as described (Desir et al., 2012, J Am Heart Assoc. 1:e002634). […] Renalase enzymatic activity was measured as previously described (Desir et al., 2012, J Am Heart Assoc. 1:e002634). Renalase expression was detected using an anti-renalase monoclonal antibody generated against the renalase peptide RP-220 (amino acid

In a further test the test system is HK-2 cells. As to the kind of experiment: HK-2 cell necrosis induced with 2 mM H2O2 (LDH release). In kind it is cell-based, human. Particulars: at 2 and 4 hrs. The method, then:
HK2 cells (human proximal tubular line) obtained from ATTC (Manassas, Va., USA) were cultured in DMEM/F12 supplemented with glutamine, 10% FBS and antibiotics, and were maintained at 37° C. in 5% CO2. Cells were exposed to cisplatin (20 μM) in the presence or absence of renalase for 24 hrs, and cell viability was assessed by the WST1 method (Roche Applied Science, Germany). Cells were then harvested in RIPA buffer (20 mM Tris-HCl pH 7.5, 150 mM NaCl, 1 mM Na2EDTA, 1 mM EGTA, 1% NP-40, 1% sodium deoxycholate, 2.5 mM sodium pyrophosphate, 1 mM β-glycerophosphate, 1 mM Na3VO4, 1 μg/ml leupeptin) supplemented with a protease and phosphatase inhibitor cocktail (Roche Applied Science, Germany). Proteins were separated by SDS-PAGE and Western blotting was carried out using the following antibodies: anti-renalase monoclonal (Desir et al., 2012, J Am Heart Assoc. 1:e002634; (Lee et al., 2013, J Am Soc Nephrol 24:445-455); anti caspase 3 (Cell Signaling Technology, MA, USA) and anti Bcl2 (Thermo Scientific, USA). Necrotic injury in HK-2 cells (ATCC, Manassas, Va.) was induced with exposure to 2 mM H2O2 for 2-8 hr and lactate dehydrogenase (LDH) released into cell culture media was measured as described using a commercial LDH assay kit (Promega, Madison, Wis.) (Lee and Emala, 2002, American journal of physiology. Renal physiology 282:F844-852).
(LDH leaks from cells whose membrane has failed.)

Entries after “also recorded” stand apart in the source; their conditions may differ.

As for “RP H220: histidine tagged RP-220, SEQ ID NO: 4, HHHHHHCIRFVSIDNKKRNIESSEIG (listed as Homo sapiens)”, in the test with cisplatin-mediated AKI, the “creatinine measured by HPLC” value is 0.085±0.007. Moreover, the “NADH or amine oxidase activity” value in test [1] is recorded as “no detectable NADH or amine oxidase activity; also recorded: neither detectable oxidase activity”. Moreover, the “necrosis induced with 2 mM H2O2” value in the test with HK-2 cells was “significantly reduced necrosis”.
